Test results reported in ChEMBL document CHEMBL3785079, “Structure-Activity Study of Bioisosteric Trifluoromethyl and Pentafluorosulfanyl Indole Inhibitors of the AAA ATPase p97” (ACS Med Chem Lett, 2015).

Target: Transitional endoplasmic reticulum ATPase (Homo sapiens, UniProt P55072)
Assay: Inhibition of wild type human AAA ATPase p97 expressed in Escherichia coli measured by ADPGlo assay in presence of 100 uM ATP

Chain of Transitional endoplasmic reticulum ATPase (P55072 whole entry): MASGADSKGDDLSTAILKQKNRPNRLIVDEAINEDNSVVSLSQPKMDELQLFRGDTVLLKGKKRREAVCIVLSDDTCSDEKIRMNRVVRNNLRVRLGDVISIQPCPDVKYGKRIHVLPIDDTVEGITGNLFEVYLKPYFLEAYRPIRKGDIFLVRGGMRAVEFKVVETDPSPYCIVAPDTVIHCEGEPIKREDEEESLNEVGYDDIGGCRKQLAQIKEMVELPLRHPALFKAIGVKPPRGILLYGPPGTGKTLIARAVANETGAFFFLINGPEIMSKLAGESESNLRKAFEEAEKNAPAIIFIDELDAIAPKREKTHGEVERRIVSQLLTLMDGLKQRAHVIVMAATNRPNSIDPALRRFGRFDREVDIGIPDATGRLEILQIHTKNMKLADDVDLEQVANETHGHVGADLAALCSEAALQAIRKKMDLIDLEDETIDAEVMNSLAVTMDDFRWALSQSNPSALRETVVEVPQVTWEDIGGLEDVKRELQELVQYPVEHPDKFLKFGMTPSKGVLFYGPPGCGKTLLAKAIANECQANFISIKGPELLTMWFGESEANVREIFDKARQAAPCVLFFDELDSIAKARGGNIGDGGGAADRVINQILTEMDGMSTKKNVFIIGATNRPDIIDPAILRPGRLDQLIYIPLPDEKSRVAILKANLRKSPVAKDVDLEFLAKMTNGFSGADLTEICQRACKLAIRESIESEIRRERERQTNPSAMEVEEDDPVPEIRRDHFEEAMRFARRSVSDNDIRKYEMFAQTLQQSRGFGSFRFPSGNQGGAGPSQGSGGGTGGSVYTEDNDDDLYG

SMILES	IC50
Cc1ccc2[nH]c(-c3cccc(N4CCC(NCCN5CCN(C(C)C)CC5)CC4)c3)cc2c1	240 nM
COc1ccc2[nH]c(-c3cccc(N4CCC(NCCN5CCN(C(C)C)CC5)CC4)c3)cc2c1	710 nM
CC(C)N1CCN(CCNC2CCN(c3cccc(-c4cc5cc(C(F)(F)F)ccc5[nH]4)c3)CC2)CC1	4700 nM
CC(C)N1CCN(CCNC2CCN(c3cccc(-c4cc5cc(OC(F)(F)F)ccc5[nH]4)c3)CC2)CC1	3800 nM
CC(C)N1CCN(CCNC2CCN(c3cccc(-c4cc5cc([N+](=O)[O-])ccc5[nH]4)c3)CC2)CC1	50 nM
CC(C)N1CCN(CCNC2CCN(c3cccc(-c4cc5cc(S(F)(F)(F)(F)F)ccc5[nH]4)c3)CC2)CC1	21500 nM
